{
  "source": "patent US20260176594A1",
  "about": "“REDUCING DISEASE TRANSMISSION OF VECTOR BORNE DISEASES” (priority 2022, published 2026)",
  "tested_on": "Zika virus",
  "test": "Zika virus replication in Aedes aegypti mosquitoes fed blood meal with harmane, plaque assay on VERO cells",
  "type": "in vivo",
  "conditions": "harmane in infectious blood meal, 7 days; for Zika virus PFU/mL in mosquito abdomens: vs control group",
  "description": "3-to-5-day-old Aedes aegypti strain SBE mosquitoes were fed via membrane feeders on a blood meal (rabbit blood) containing approximately 10^7 PFU/ml Zika virus and the indicated concentrations of harmane dissolved in dimethyl sulphoxide (DMSO). The bloodmeal fed to the control group contained no harmane. Fully engorged mosquitoes were selected and kept on a 10% sucrose diet. In total, 30 mosquitoes were analyzed per treatment.\nAfter 7 days, the abdomens of mosquitoes were dissected and placed in 2 mL tubes containing glass beads and 300 μL of DMEM medium. Samples were homogenized. A 1:10 dilution series of this solution was dispersed onto 96-well plates containing VERO cells. 5-6 days later, the medium was discarded and viral plaques were fixed and developed with staining reagent (1% crystal violet in […] solution) at room temperature for 1 h. 5\nPlates were rinsed with distilled water and air-dried. Plaques were counted and multiplied by the corresponding dilution factors to calculate the number of plaque-forming units (PFUs). Horizontal red lines are median values. […] Statistical differences were assessed using the nonparametric Mann-Whitney test.",
  "data": [
    {"smiles": "Cc1nccc2c1[nH]c1ccccc12", "note": "[harmane, 1-Methyl-9H-pyrido[3,4-b]indole]", "values": [
      {"measurement": "statistical difference of treated groups compared to the DMSO-control (Mann-Whitney)", "value": "No significant differences"},
      {"measurement": "Zika virus PFU/mL in mosquito abdomens", "value": "reduced level"},
      {"measurement": "Zika virus PFU/mL in mosquito abdomens", "setting": "listed as Harmane", "value": "dose dependent decrease"}
    ]}
  ]
}
